For series [1], the system named is SM38. Description: Enzyme assays and kinetics with purified recombinant soluble SM38. In kind it is biochemical, Schistosoma mansoni. The conditions noted are these: for Km / Vmax (specific activity) / kcat: 37° C., 10 mM potassium phosphate buffer pH 7.4, SM38 from Pichia pastoris. The method, then:
The enzyme was incubated with NAD^+ (200 μM) in buffer A (1 ml final volume) until the reaction reached 50% completion. The enzyme was eliminated by centrifugation for 10 min at 5000×g on ultrafiltration units (Vivaspin 2, Vivascience). […] The cycling reaction was then allowed to proceed in the same buffer in the presence of 0.8% ethanol, 10 mM nicotinamide, 40 μg/ml BSA, 20 μg/ml diaphorase (treated with charcoal), 20 μg/ml alcohol dehydrogenase, 10 μM FMN and 20 μM resazurin. The increase in resorufin fluorescence (excitation at 544 nm and emission at 590 nm) was measured every minute for 2 h using a fluorescence plate reader (FluoStar from BMG Labtechnologies Inc).
Aliquots were removed at different time points, treated as described above and analyzed by HPLC on a C18 column.
(§1) The transglycosidation of NADP^+ was measured by incubating recombinant soluble SM38 with 1 mM NADP^+ and 20 to 40 mM nicotinic acid at 37° C. for 20 min in a 10 mM potassium phosphate buffer, pH 6.0 or 7.4 (final volume 500 μl). The reaction mixture was analyzed by HPLC on an ion-exchange column (see below). HPLC analysis of the reaction products were performed on aliquots on a C18 column (see below).
The assays were conducted at 37° C. in buffer A in the presence of soluble recombinant enzyme using eight different substrate concentrations. […] Kinetic parameters were determined from the plots of the initial rates as a function of substrate concentration, according to Michaelis-Menten kinetics, using a non-linear regression program (GraphPad, Prism).

Series [2] concerns membrane-associated NAD^+ glycohydrolase/NGD^+ cyclase expressed by adult S. mansoni worms. Briefly: NAD+ glycohydrolase / NGD+ cyclase activity of adult worm membrane microsomes.
Experimental: The enzyme was suspended in 10 mM potassium phosphate buffer, pH 7.4 (buffer A) and incubated at 37° C. with substrate (200 μl final volume). At selected times, aliquots (50 μl) were removed and enzyme activity was stopped by adding ice-cold perchloric acid (2% final concentration). After neutralization with 3.5 M K2CO3, precipitated proteins were removed by centrifugation. Product formation was then monitored by HPLC as described below. […] Product formation was then monitored by HPLC on a C18 column as described below.
Product analysis was performed by HPLC on 300×3.9 mm μBondapack C18 column (Waters Assoc., Milford Mass.). […] The elution was performed at a flow rate of 1 ml/min with a non-linear gradient starting with 100% solvent A (water). […] Peaks were identified by comparison with authentic samples and areas obtained from UV recordings were normalized using the molar extinction coefficients of the reaction products.
To prepare membrane fractions from adult S. mansoni worms, 2 g of worms were disrupted at 4° C. with a potter in 10 mM potassium phosphate buffer (pH 7.4) containing 1 mM EDTA and 0.1 mM phenylmethylsulfonyl fluoride (PMSF) as protease inhibitors. The homogenate was centrifuged at 10,000×g for 15 min and the post-mitochondrial supernatant was centrifuged at 100,000×g for 60 min to obtain the membrane microsomal fraction. […]
Series [3] has as its system bone marrow neutrophils. Description: Intracellular calcium measurements by flow cytometry (Fluo-3/Fura Red). It is filed as cell-based, mouse. The method, then: Purified bone marrow neutrophils were resuspended in cell loading media (HBSS with Ca2^+ and Mg2^++1% FBS+4 mM probenecid) at 1×10^7 cells/ml. The cells were incubated at 37° C. for 30 min with the fluorescent dyes Fluo-3 AM (4 μg/ml) and Fura Red AM (10 μg/ml) (Molecular Probes, Eugene Oreg.) and then washed twice and resuspended in cell loading medium or calcium-free medium at 1×10^6 cells/ml. In some experiments, cells were permeabilized in 5 μM digitonin in calcium-free media. […] The accumulation of [Ca^2+]i in individual cells was assessed by flow cytometry measuring the fluorescence emission of Fluo-3 in the FL-1 channel and Fura-Red in the FL-3 channel. Data was analyzed using FlowJo 3.2 (Tree Star, Inc. San Carlos, Calif.). The relative [Ca2^+]i was expressed as the ratio between Fluo-3 and Fura Red mean fluorescence intensity over time.

The subject of series [4] is Mammalian cyclases. As to conditions: cited from earlier work.
Series [5] addresses Aplysia cyclase (Aplysia californica, UniProt P29241). As to conditions: cited from earlier work.
Series [6] deals with bone marrow neutrophils. Description: In vitro transwell chemotaxis assay. It is filed as cell-based, mouse. The conditions noted are these: for ability of neutrophils to chemotax to IL-8: WT neutrophils pre-treated with agent, IL-8 in bottom chamber. The method, then:
Bone marrow neutrophils were purified (95% purity) by positive selection using biotinylated GR-1 (PharMingen) and MACS Streptavidin Microbeads (Miltenyi Biotec, Auburn Calif.). Chemotaxis assays (Falk et al., 1980 J. Immuno. Methods 33:239-247) were performed using 24-well transwell plates with a 3 μm pore size polycarbonate filter (Costar, Cambridge, Mass.). Medium (HBSS+Ca2^++Mg2^+), fMLP (1 μM, Sigma, St. Louis, Mo.), or IL-8 (100 nM, Sigma) was placed in the lower and/or upper chamber in a checkerboard format. 1×10^5 neutrophils were loaded in the upper chamber and the plates were incubated at 37° C. for 45 min. The transmigrated cells were collected from the lower chamber, fixed and counted on the flow cytometer (FACS Calibur, Becton Dickinson, San Jose Calif.). To determine the absolute number of cells in each sample, a standard number of […] size fluorescent microspheres (Polysciences, Inc. Warrington, Pa.) was added to each tube and counted along with the cells. The total number of transmigrated cells=the number of counted neutrophils×total number of beads/beads counted. […]

The conditions of series [7]: other cyclase family members; cited from earlier work.
Series [8] can be described thus: Transglycosidation (pyridine base exchange) by cyclase family enzymes. As to conditions: SM38. In kind it is biochemical. As for the experimental part:
as §1

Results on 14 molecules are retold here after patent US7695933B2, “SM38 nucleic acid molecules” (priority 2000, dated 2010).

Where “and” joins values, the source holds several entries; their conditions need not be identical. Equal entries are not always repeated. Where two headings read alike, the source gives them in different places.

As a reminder, the Km is the concentration of substrate that gives half-maximal velocity. Usually kcat stands for the maximal rate divided by the concentration of active sites. Usually IC50 stands for the concentration at which inhibition is half-maximal.

Aplysia cyclase, sequence (P29241 25-282): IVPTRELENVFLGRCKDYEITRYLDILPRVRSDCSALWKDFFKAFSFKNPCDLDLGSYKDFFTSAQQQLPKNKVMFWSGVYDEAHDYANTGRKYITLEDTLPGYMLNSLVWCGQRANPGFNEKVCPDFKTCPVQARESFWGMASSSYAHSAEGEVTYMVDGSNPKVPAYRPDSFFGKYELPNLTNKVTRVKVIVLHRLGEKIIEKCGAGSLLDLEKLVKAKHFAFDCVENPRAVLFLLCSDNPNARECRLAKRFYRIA

As for `NC(=O)c1ccc[n+]([C@@H]2O[C@H](COP(=O)([O-])OP(=O)(O)OC[C@H]3O[C@@H](n4cnc5c(=O)[nH]c(N)nc54)[C@H](O)[C@@H]3O)[C@@H](O)[C@H]2O)c1` [NGD^+, nicotinamide guanine dinucleotide], in series [1], the Km amounted to 23.4 µM; the “Vmax (specific activity)” value is 4.8 µmol/min/mg and 4.8 ± 0.1 µmol/min/mg; the kcat came to 2.37 ± 0.05 s⁻¹. In series [1] (NGD+ as substrate, cGDPR vs GDPR), the cyclization/hydrolysis ratio result was “approximately 6.0”. Also, the cGDPR/GDPR ratio in series [2] (membrane microsomes incubated with NGD+) stood at 12.

As for `Nc1ncnc2c1ncn2[C@@H]1O[C@H](COP(=O)(O)OP(=O)(O)OCC2OC([n+]3cccc(C(=O)[O-])c3)C(O)C2O)[C@@H](O)[C@H]1OP(=O)(O)O` (stereo in doubt) [NAADP^+, nicotinic acid adenine dinucleotide phosphate], in series [1] (transglycosidation of NADP+ with nicotinic acid), the “reduction in NAADP+ formation at pH 7.4 compared to pH 6.0” value came out at 3 fold.

Regarding `N.N.N.N.N.N.N.N.N.N.N.N.N.N.[Cl-].[Cl-].[Cl-].[Cl-].[Cl-].[Cl-].[O-2].[O-2].[Ru+3].[Ru+3].[Ru+4]` [ruthenium red], in series [3] (permeabilized neutrophils, calcium-free buffer), the “block of ryanodine-induced increase in [Ca2+]” value is “blocked”.

As to `NNC(=O)c1ccncc1` [INH, isoniazid], the “Sensivity to INH” value in series [1] (SM38) was “INH-insensitive and no”; in series [4], “yes/no”.

Consider `NC(=O)c1ccc[n+]([C@@H]2O[C@H](COP(=O)([O-])OP(=O)(O)OC[C@H]3O[C@@H](n4cnc5c(N)ncnc54)[C@H](O)[C@@H]3O)[C@@H](O)[C@H]2F)c1` [araF-NAD^+], for which the IC50 was more than 10 µM in series [1] (SM38, read-out: Inhibition by araF-NAD^+ (IC50)) and more than 10 µM in series [5] (read-out: Inhibition by araF-NAD^+ (IC50)). In series [4], the “Inhibition by araF-NAD^+ (Ki)” value is “Ki nM range”.

As for ryanodine, the “[Ca2+]i after stimulation” value in series [3] (neutrophils permeabilized in calcium-free buffer) was “small, but reproducible, increase”.

As to `NC(=O)c1ccc[n+]([C@@H]2O[C@H](COP(=O)([O-])OP(=O)(O)OC[C@H]3O[C@@H](n4cnc5c(N)ncnc54)[C@H](OP(=O)(O)O)[C@@H]3O)[C@@H](O)[C@H]2O)c1` [NADP^+], in series [1], the Km amounted to 13.7 ± 2.9 µM, the “Vmax (specific activity)” value came out at 39.2 ± 1.6 µmol/min/mg and the catalytic constant (kcat) was determined as 19.34 ± 0.79 s⁻¹. Further, the “catalytic efficiency (kcat/Km) relative to NAD+” value in series [1] (NADP+ versus NAD+) amounted to 8 fold.

Regarding `N=c1c2nc(Br)n3c2ncn1C1OC(COP(=O)(O)OP(=O)(O)OCC2OC3C(O)C2O)C(O)C1O` (stereo not drawn) [8-Br-cADPR], in series [6], the “ability of neutrophils to chemotax to IL-8” value (“ability of neutrophils” below) is “absolutely no effect”. The “release of intracellular calcium and influx of extracellular calcium” value in series [3] (WT cells preincubated with increasing concentrations, stimulated with fMLP) is listed as “reduced in a dose-dependent fashion”. Also, the “[Ca2+]i of IL-8 stimulated neutrophils” value in series [3] (WT or CD38KO neutrophils, IL-8) is “absolutely no effect”. The “cADPR-induced intracellular calcium release after pre-treatment” value in series [3] (permeabilized neutrophils, calcium-free buffer, stimulated with cADPR) was “No calcium release”. Moreover, the “block of accumulation of intracellular free calcium mediated by thapsigargin” value in series [3] (thapsigargin-stimulated neutrophils) was “unable to block”.

In the case of `NC(=O)c1ccc[n+]([C@@H]2O[C@H](COP(=O)([O-])OP(=O)(O)OC[C@H]3O[C@@H](n4c(Br)nc5c(N)ncnc54)[C@H](O)[C@@H]3O)[C@@H](O)[C@H]2O)c1` [N(8-Br-A)D^+, nicotinamide 8-bromoadenine dinucleotide], the “chemotaxis of CD38KO neutrophils to either fMLP or IL-8” value in series [6] (CD38KO neutrophils pre-treated) was “no effect”. In series [6], the “ability of neutrophils” value is on record as “no effect”. For the same molecule, the “neutrophil chemotaxis to fMLP” value in series [6] (WT neutrophils pre-treated, fMLP in bottom chamber) is “severely reduced”. Also, in series [3] (WT neutrophils pretreated), the “entry of extracellular calcium in fMLP-treated neutrophils” value is recorded as “inhibited”.

Take `NC(=O)c1ccc[n+]([C@@H]2O[C@H](COP(=O)([O-])OP(=O)(O)OC[C@H]3O[C@@H](n4cnc5c(N)ncnc54)[C@H](O)[C@@H]3O)[C@@H](O)[C@H]2O)c1` [NAD^+]: in series [1], the Michaelis-Menten constant (Km) was found to be 38.5 ± 6.8 µM; the “Vmax (specific activity)” value is 13.2 µmol/min/mg and 13.2 ± 2.6 µmol/min/mg; the catalytic constant (kcat) came out at 6.51 ± 1.28 s⁻¹. Further, in series [1] (SM38), the “Hydrolysis of NAD^+” value was “yes” and the “Methanolysis of NAD^+” value is “yes”. In series [4], the “Hydrolysis of NAD^+” value is on record as “yes” and the “Methanolysis of NAD^+” value is reported as “yes”. In series [5], the “Hydrolysis of NAD^+” value is “very low” and the “Methanolysis of NAD^+” value is “very low”. Further, the “specific activity of non-treated membrane microsomes” value in series [2] (14C-labeled NAD+, ADPR production by HPLC) worked out at 36 nmol/min/mg protein.

For `O=C(O)CN(CCOCCOCCN(CC(=O)O)CC(=O)O)CC(=O)O` [EGTA], the “ability of neutrophils” value in series [6] is recorded as “absolutely no effect”.

With cyclic GDP-ribose [cGDPR], the “Formation of cGDPR” value in series [1] (SM38), in series [4] and in series [5] was “yes” each time.

B1: Aplysia cyclase: invertebrate Aplysia ADP-ribosyl cyclase enzyme (protein)
chain: MSPVAIVACVCLAVTLTRISPSEAIFPTPELQNVFLGRCKDYEITRYLTILPRVKSDCRALWTNFFKAFSFKAPCNLDLGSYKDFFQRAQQTLPKNKVMFWSGVYDEAHDFADDGRKYITLEDTLPGYMLNSLVWCGQRDKPGFNQKVCPDFKDCPVQARESFWGTASSSYAHSAEGDVTYMVDGSNPKVPAYRPDSFFGKYELPNLTNKVTKVKVIVLHQLGQKIIERCGAGSLLDLEMVVKAKKFGFDCVENPKSVLFLLCADNPNARECQLAKRYYRIA
modifications: A. californica
notes: invertebrate Aplysia ADP-ribosyl cyclase enzyme
In the case of B1, the Transglycosidation entry in series [7] is “yes”.

B2: SM38: CD38 homologue from the parasitic flatworm Schistosoma mansoni (protein)
chain: RHEVIFHNLLIQIMMNVILFLTLSNIFVFNSAQHQINLLSEIVQSRCTQWKVEHGATNISCSEIWNSFESILLSTHTKSACVMKSGLFDDFVYQLFELEQQQQQRHHTIQTEQYFHSQVMNIIRGMCKRLGVCRSLETTFPGYLFDELNWCNGSLTGNTKYGTVCGCDYKSNVVHAFWQSASAEYARRASGNIFVVLNGSVKAPFNENKTFGKIELPLLKHPRVQQLTVKLVHSLEDVNNRQTCESWSLQELANKLNSVHIPFRCIDDPLEFRHYQCIENPGKQLCQFSASTRSNVETLLILFPLVICLTFYTSMN
Take B2: the Transglycosidation result in series [8] is “yes”.
